The record followed here is US7947262B2, “Use of fullerenes for the treatment of mast cell and basophil-mediated disease” (Virginia Commonwealth University, priority 2006, dated 2011).

Data set [1] deals with skin MC. Description: Cellular localization by immunohistochemistry with anti-C60 fullerene Ab. It is filed as cell-based, human. The following applies: 4 hours incubation; Polyhydroxy C60 10 ng/ml, N-ethyl-polyamino C60 0.1 μg/ml; FIG. 4. The method, then:
Skin MC (a-d) or PBB (e, f) were incubated with Polyhydroxy C60 (10 ng/ml; a, b, c, f) or N-ethyl-polyamino C60 (0.1 μg/ml; d, f) for 4 hours, washed and cytocentrifuged onto slides. The cytocentrifuge preparations were incubated with anti-C60 fullerene Abs (c, d, e, f) or with an isotype-matched control (a, b) overnight. The cytospins were washed and incubated with a 1:50 dilution of peroxidase-conjugated, anti-mouse Abs and developed with AEC as described. Photographs a and b are the same field taken under phase-contrast (a) or light (b) at a magification of 400×. Pictures c-f were taken under light at a magification of 1000×.
To access the cellular localization if the fullerenes within human MC, these cells were incubated with the water soluble fullerenes and immunohistochemistry was assessed using a fullerene-specific antibody Ab (59;60).

For data set [2], the system named is PBB. Briefly: Cellular ROS levels after antigen challenge (DCF dye, FACS). It is filed as cell-based, human. The following applies: preincubation, then NIP-BSA 100 ng/ml for 30 min; FIG. 5. The method, then: (§1) Skin MC (grey) or PBB (white) were sensitized overnight with anti-NIP-IgE (1 μg/ml). Cells were activated for 30 min with NIP-BSA (100 ng/ml) with or without preincubation with the indicated concentrations of fullerenes or N-acetyl-L-cysteine (NAC; 10 μmol). Cellular ROS levels were detected by incubating the cells in the ROS indicating dye 5-(and-6)-carboxy-2′,7′-dichlorodihydrofluorescein diacetate (DCF) followed by FACS analysis. The results are representative of 3 separate MC or PBB cultures. The * or # indicates statistically significant changes in ROS levels for MC and PBB, respectively (p<0.05). A, polyhydroxy C60 fullerenes; B, N-ethyl-polyamine C60 fullerenes.
(§2) To investigate the mechanism by which these fullerenes inhibit allergic mediator release from skin MC and PBB, the effect these compounds have on ROS levels within the cell after antigen stimulation was tested.

In data set [3] the test system is skin MC. The description is as above. It is filed as cell-based, human. The following applies: preincubation, then NIP-BSA 100 ng/ml for 30 min; FIG. 5. The method, then: as §1, §2
Another data set concerns IgE-DNP-sensitized mice. Description: IgE-induced systemic anaphylaxis in vivo. The following applies: intravenously (50 ng/ml) overnight before DNP-BSA challenge; FIG. 6. As to the method: FIG. 6. […] Mice (3-5 per group; n=2 separate experiments) were sensitized with or without (Δ) DNP-IgE overnight. The mice were then given vehicle alone (▪) or fullerenes (▾=Poly C60; ●=N-ethyl C60) intravenously (50 ng/ml) overnight. The next morning the animals were challenged with DNP-BSA (100 μg/ml) and the core body temperature measured for up to 30 minutes. Serum histamine levels were measured by ELISA. A, data represented with line graphs; B, data represented with bar graphs.
Systemic anaphylaxis is predominately driven by the activation of MC and PBB through IgE-FceRI crosslinking (45;61). […] Thus, we hypothesized that they could inhibit MC and PBB-induced anaphylaxis in vivo using IgE-sensitized mice. […] In addition, there was a significant reduction in serum histamine levels with the fullerene preincubation.
To test inhibition of mouse anaphylaxis, mice are injected intraperitoneally (IP) with 50 μg of DNP-specific IgE. After approximately 4 to 6 hours the mice (triplicate) are injected with or without different concentrations of fullerenes. The next day cells are injected IP with DNP-HSA (100 μg, Sigma-Aldrich). […] After 30 minutes, mice are sacrificed, and cardiac puncture is used to obtain plasma, from which histamine and other mediators are measured by ELISA. […]

Data set [4] deals with skin MC.
Protocol: (§3) A bar graph illustrating the effects of fullerenes on skin MC and PBB viability Cells were cultured with (poly; white bars, N-ethyl; striped bars) or without (black bars) fullerenes (10 mg/ml) for the indicated times. Cells were washed and viability assessed by trypan blue exclusion. Results are representative of 3 experiments from different donors.
(§4) The effects of water soluble fullerene derivatives (Poly; polyhydroxy C60 and N-ethyl; N-ethyl-polyamino C60) on cell growth and viability were tested. Cells were incubated for up to 72 hours and total cell numbers were assessed along with trypan blue exclusion.
Data set [5] has as its system PBB.
Protocol: as §3, §4

In the case of N-ethyl-polyamino C60, the “cellular localization of fullerenes” value in the data set on skin MC [1] is “localize within the cytoplasm of MC”. In addition, the “cellular ROS levels” value in the data set with PBB [2] and in the data set on skin MC [3] was “inhibit ROS production” throughout. The IgE-induced anaphylaxis result in the data set with IgE-DNP-sensitized mice was “inhibit IgE-induced anaphylaxis”. Also, the total cell numbers entry in the data set with skin MC [4] and in the data set with PBB [5] was “None of the fullerenes demonstrated a significant affect” throughout.
Consider polyhydroxy C60, for which, in the data set with skin MC [1], the “cellular localization of fullerenes” value is reported as “localize within the cytoplasm of MC”. Moreover, the “cellular ROS levels” value in the data set on PBB [2] and in the data set with skin MC [3] was “inhibit ROS production” in each case. In the data set with IgE-DNP-sensitized mice, the IgE-induced anaphylaxis entry is on record as “inhibit IgE-induced anaphylaxis”. For the same substance, the total cell numbers result in the data set with skin MC [4] and with PBB [5] was “None of the fullerenes demonstrated a significant affect” throughout.
